Experimental data reported in US6423376B1, “Tartaric acid diesters as biodegradable surfactants” (Air Products and Chemicals, Inc., priority 2000, dated 2002).
Counter-ions that a name gives are not always drawn.

Legend:
[1] = Foam test based upon ASTM D 1173-53; type: physicochemical; conditions: 0.1 wt % solution
Source text: The foaming properties of a 0.1 wt % solution of the comparative example (nonylphenol 9.5 mole ethoxylate) and various dialkyltartrates (diisopropyl-(D)-tartrate, dibutyl-L-tartrate. diisobutyl-DL-tartrate, di-sec-butyl-DL-tartrate, dipentyl-DL-tartrate, diisoamyl-DL-tartrate, di-(2-methyl-butyl)-DL-tartrate, dineopentyl-DL-tartrate, dihexyl-DL-tartrate, di-(4-methyl-2-pentyl)-DL-tartrate, dibenzyl-DL-tartrate and di-(2-ethyl-hexyl)-DL-tartrate) were examined using a procedure based upon ASTM D 1173-53. In this test, a 0.1 wt % solution of the surfactant is added from an elevated foam pipette to a foam receiver containing the same solution. The foam height is measured at the completion of the addition (“Initial Foam Height”) and the time required for the foam to dissipate at the air-liquid interface (“Time to 0 Foam”) is recorded. This test provides a comparison between the foaming characteristics of various surfactants. In general, in coatings, inks, adhesives and agricultural formulations, foam is undesirable because is complicates handling and can lead to coating and print defects, and to inefficient application of agricultural materials.

[2] = Dynamic surface tension of aqueous solutions, maximum bubble pressure method; type: physicochemical; conditions: for limiting γ (0.1 b/s) / limiting γ (1 b/s) / limiting γ (6 b/s) / limiting γ (20 b/s): lowest surface tension in water; for pC20: negative logarithm of molar concentration giving 52.1 dyne/cm at 0.1 b/s; for decrease in the limiting surface tension: in comparison to dipentyl-L-tartrate
Source text: where R1 and R2 are independently a C4 to C6 alkyl group, but preferably are the same; provided that when the water-based composition is an ink, R1 and R2 are independently a C5 or C6 alkyl group. […] The maximum-bubble-pressure method of measuring surface tension is described in Langmuir 1986, 2, 428-432, which is incorporated by reference.
In the following Examples dynamic surface tension data were obtained for aqueous solutions of various compounds using the maximum bubble pressure method at bubble rates from 0.1 bubbles/second (b/s) to 20 b/s. […] In practical terms, high bubble rates correspond to high printing speeds in lithographic printing, high spray or roller velocities in coating applications, and rapid application rates for agricultural products.
Dynamic surface tension data were obtained for a 0.1 wt % aqueous solution of the 9.5 mole ethoxylate of nonylphenol using the maximum bubble pressure method at bubble rates from 0.1 bubbles/second (b/s) to 20 b/s.
(§1) Solutions of the materials of Examples 1-12 in distilled water were prepared. […] The pC20 value is defined as the negative logarithm of the molar concentration of surfactant required to decrease the surface tension of an aqueous solution to 52.1 dyne/cm, that is, 20 dyne/cm below that of pure water when the measurement is performed at 0.1 b/s. This value is a measure of the efficiency of a surfactant. […] In addition, the relative efficiency of surfactants can be obtained by comparing surface tension reduction of solutions containing the same amount of different surfactants. Such data is given for 0.1 wt % solutions of the tartrates at 1.0 and 6.0 bubbles/second (b/s). The solubility limit was determined by intersection of the linear portion of a surface tension/In concentration curve with the limiting surface tension as is described in many textbooks. The limiting surface tensions at 0.1, 1, 6 and 20 b/s represent the lowest surface tensions in water which can be achieved at the given surface creation rates for a given surfactant regardless of the amount of surfactant used and is used to evaluate the effectiveness of a surfactant. These values give information about the relative ability to a surfactant to reduce surface defects under near-equilibrium conditions (0.1 b/s) through very dynamic conditions (20 b/s). Lower surface tensions would allow the elimination of defects upon application of a formulation onto lower energy surfaces.

[3] = Solubility limit in water from surface tension/ln concentration curve; type: physicochemical; conditions: in distilled water
Experimental: as §1

Row | initial foam [1] [cm] | time to zero foam [1] [s] | solubility limit [3] | γ (0.1 wt % solution) (1 b/s) ([2]; 1 b/s) [Dyne/cm] | γ (0.1 wt % solution) (6 b/s) ([2]; 6 b/s) [Dyne/cm] | limiting γ (0.1 b/s) ([2]; 0.1 b/s) [Dyne/cm] | limiting γ (1 b/s) ([2]; 1 b/s) [Dyne/cm] | limiting γ (6 b/s) ([2]; 6 b/s) [Dyne/cm] | limiting γ (20 b/s) ([2]; 20 b/s) [Dyne/cm] | pC20 [2] | time to zero foam ([1]; unit not given) | Molecule | other results
1 | 1.3 | 0.1 | 0.05 Weight % | 67.8 | 70.0 | 64.0 | 68.1 | 69.8 | 72.5 | 1.0 |  | O=C(OCc1ccccc1)C(O)C(O)C(=O)OCc1ccccc1 (racemic) [Example 11, Dibenzyl-DL-tartrate] | 
2 | 0 |  | 0.1 Weight % | 35.4 | 36.7 | 34.9 | 35.7 | 37.2 | 40.3 | 3.7 | 0 | CC(C)CCOC(=O)C(O)C(O)C(=O)OCCC(C)C (racemic) [Example 6, Diisoamyl-DL-tartrate] | decrease in the limiting surface tension ([2]; 20 b/s): 1.3 dyne/cm
3 | 0 |  | 0.2 Weight % | 38.7 | 39.8 | 35.1 | 35.5 | 36.1 | 38.4 | 3.5 | 0 | CC(C)(C)COC(=O)C(O)C(O)C(=O)OCC(C)(C)C (racemic) [Example 8, Dineopentyl-DL-tartrate] | decrease in the limiting surface tension ([2]; 20 b/s): 3.2 dyne/cm
4 | 0.8 | 0.3 | 0.02 Weight % | 42.2 | 46.8 | 41.3 | 49.9 | 56.1 | 68.2 | 3.7 |  | CC(C)CC(C)OC(=O)C(O)C(O)C(=O)OC(C)CC(C)C (racemic) [Example 10, Di(4-methyl-2-pentyl)-DL-tartrate] | 
5 | 0.5 | 0.3 | 0.7 Weight % | 50.6 | 51.4 | 38.7 | 39.3 | 39.8 | 40.8 | 2.6 |  | CC(C)COC(=O)C(O)C(O)C(=O)OCC(C)C (racemic) [Example 3, Diisobutyl-DL-tartrate] | 
6 |  |  |  |  |  |  |  |  |  |  |  | CC(C)(C)COC(=O)C(O)C(O)C(=O)OCC(C)(C)C (racemic) (as salt: tartrate) [Example 8, Dineopentyl-DL-tartrate] | melting point: 75 °C
7 | 0 |  | 0.06 Weight % | 69.8 | 70.5 | 66.7 | 69.8 | 70.5 | 71.3 | 1.6 | 0 | CCCCC(CC)COC(=O)C(O)C(O)C(=O)OCC(CC)CCCC (racemic) [Example 12, Di(2-ethylhexyl)-DL-tartrate] | limiting γ (0.1 b/s) at 5 wt. % ([2]; 5 wt. %, cloudy mixture, 0.1 b/s): 38.5 dyne/cm; limiting γ (1 b/s) at 5 wt. % ([2]; 5 wt. %, cloudy mixture, 1 b/s): 40.3 dyne/cm; limiting γ (6.0 b/s) at 5 wt. % ([2]; 5 wt. %, cloudy mixture, 6.0 b/s): 41.2 dyne/cm; limiting γ (20 b/s) at 5 wt. % ([2]; 5 wt. %, cloudy mixture, 20 b/s): 44.8 dyne/cm
8 | 0 |  | 0.1 Weight % | 39.0 | 39.8 | 35.6 | 36.0 | 36.0 | 38.5 | 3.2 | 0 | CCC(C)COC(=O)C(O)C(O)C(=O)OCC(C)CC (racemic) [Example 7, Di(2-methyl-butyl)-DL-tartrate] | 
9 | 1.7 | 0.4 | 1.7 Weight % | 52.2 | 53.2 | 35.1 | 35.0 | 35.0 | 36.0 | 2.5 |  | CCC(C)OC(=O)C(O)C(O)C(=O)OC(C)CC (racemic) [Example 4, Di-sec-butyl-DL-tartrate] | 
10 |  |  | 1.1 Weight % |  |  |  |  |  |  |  |  | CCCCOC(=O)C(O)C(O)C(=O)OCCCC (racemic) [Example 2, Dibutyl-L-tartrate] | 
11 | 1.3 | 0.1 | 0.01 Weight % | 59.0 | 65.9 | 40.5 | 59.0 | 65.9 | 70.0 | 3.8 |  | CCCCCCOC(=O)C(O)C(O)C(=O)OCCCCCC (racemic) [Example 9, Dihexyl-DL-tartrate] | 
12 | 0 |  | 0.1 Weight % | 36.8 | 37.8 | 35.9 | 36.8 | 37.8 | 41.6 | 3.3 | 0 | CCCCCOC(=O)C(O)C(O)C(=O)OCCCCC (racemic) [Example 5, Dipentyl-DL-tartrate] | 
13 |  |  | >5% Weight % |  |  |  |  |  |  |  |  | CC(C)OC(=O)C(O)C(O)C(=O)OC(C)C [Example 1, Diisopropyl-D-tartrate] | 

Row | Molecule | initial foam [1] [cm] | time to zero foam [1] [s] | solubility limit [3] | γ (0.1 wt % solution) (1 b/s) ([2]; 1 b/s) [Dyne/cm] | γ (0.1 wt % solution) (6 b/s) ([2]; 6 b/s) [Dyne/cm] | limiting γ (0.1 b/s) ([2]; 0.1 b/s) [Dyne/cm] | limiting γ (1 b/s) ([2]; 1 b/s) [Dyne/cm] | limiting γ (6 b/s) ([2]; 6 b/s) [Dyne/cm] | limiting γ (20 b/s) ([2]; 20 b/s) [Dyne/cm] | pC20 [2] | time to zero foam ([1]; unit not given) | other results
14 | 9.5 mole ethoxylate of nonylphenol [reference compound] | 4.5 | >300 |  |  |  |  |  |  |  |  |  | Dynamic Surface Tension (0.1 b/s) ([2]; 0.1 wt % aqueous solution, 0.1 b/s): 33.2 dyne/cm; Dynamic Surface Tension (1 b/s) ([2]; 0.1 wt % aqueous solution, 1 b/s): 36.7 dyne/cm; Dynamic Surface Tension (6 b/s) ([2]; 0.1 wt % aqueous solution, 6 b/s): 44.3 dyne/cm; Dynamic Surface Tension (15 b/s) ([2]; 0.1 wt % aqueous solution, 15 b/s): 52.8 dyne/cm; Dynamic Surface Tension (20 b/s) ([2]; 0.1 wt % aqueous solution, 20 b/s): 56.2 dyne/cm
